Test [1] concerns carrageenan-induced inflammation. Briefly: Carrageenan-induced inflammation test. The note with it: for oedema (paw diameter): 0.5 mg/kg (hypaphorine and 6ID also 1 mg/kg); for analgesia in von Frey test: versus vehicle. It is filed as in vivo, ICR mice. How it is done:
Subplantar 1% carrageenan injections in a volume of 30 μL into the right hind paw were carried out to generate an inflammation model in mice. The paw volume was measured beforehand using an electronic calliper. The maximum effect of the introduction of carrageenan was observed after 3 h. […] The control group was treated with saline (0.9% NaCl). Two hours after the drug administration (total 3 h from carrageenan injection), the size of the pad of the right hind paw was measured, the von Frey test and paw pressure analgesimeter pain sensitivity assessment were performed.
Carrageenan inflammation was induced by injecting 30 μL of a 1% carrageenan suspension (Sigma-Aldrich, lot #SLBK3896V) into the subplantar surface of the ICR mice hind paw. The oedema degree of the carrageenan-induced paw was evaluated using an electronic calliper by the volume difference of the animal’s right hind paw after (3 h from carrageenan injection) and before being hurt by carrageenan.
[…] The control group was treated with saline (0.9% NaCl).
Antinociceptive testing was performed 2 h after the drug administration (3 h after carrageenan injection).
Nociceptive testing was performed by utilizing the von Frey test and Paw pressure test.
The animals were placed in 20 cm × 20 cm Plexiglas boxes equipped with a metallic mesh floor. Animals were allowed to habituate themselves to their environment for 15 min before the test. […] The paw sensitivity threshold was defined as the minimum force required to elicit a robust and immediate withdrawal reflex of the paw. Spontaneous movements associated with locomotion were not considered as a withdrawal response. Measurements were repeated 3 times and the final value was obtained by averaging the 3 measurements.
Mechanical hyperalgesia was measured as a paw withdrawal response to a gradual increase of mechanical pressure applied by the Rodent pinchers—analgesia meter (model BIO-RP-M; BioSeb, Vitrolles, France). The influence of stimulation on each hind paw was recorded three times. The maximum force applied to the paw was recorded as the grams (g) of force on the dynamometer.

The next test relates to CFA-induced inflammation. Kind of test: CFA-induced inflammation test. Format: in vivo, ICR mice. The note with it: mice; for analgesia in hot plate test: 2 h after injection, 53 °C, doses 0.1, 0.5, 1 mg/kg; for oedema (paw diameter): intramuscular 0.1, 0.5, 1 mg/kg, measured 6-48 h. How it is done:
Anti-inflammatory effect of two analogs of 6-substituted hypaphorine (6ND and 6ID) was tested in a model with subplantar administration of complete Freund’s adjuvant (CFA) in mice. CFA was injected once into the footpad to induce oedema in 24 h. Oedema was measured with an electronic calliper. Immediately after paw measurement, 6ND or 6ID was injected intramuscularly in doses 1, 0.5, and 0.1 mg/kg. Paws were measured at 6, 12, 24, and 48 h after administration of 6ND or 6ID. […] End points at 48 h of drug treatments at dose […] have been analyzed in terms of paw diameter normalized to the maximal oedemic levels in each group (Figure 6d).
Additionally, after 2 h following the drug injection, the analgesia test was conducted on the “hot plate” preheated to 53 °C. The time of withdrawal or licking of the affected paw was assessed for each animal.
The development of the inflammation and thermal hyperalgesia of the paw was induced by the injection of the oil/saline (1:1) CFA emulsion (Sigma-Aldrich, St. Louis, MO, lot # WH327536) into the subplantar surface of the hind paw of the ICR mice (20 µL/paw) 24 h before the measurement. Oedema was measured with an electronic calliper. Immediately after paw measurement, 6ND or 6ID were injected intramuscularly in doses: 1, 0.5, and 0.1 mg/kg. Paws were measured at 6, 12, 24, and 48 h after administration of 6ND or 6ID. After 2 h following the drug injection, the inflamed paw withdrawal or licking latencies to thermal stimulation were measured on a hot plate device (Hot Plate Analgesia Meter, Columbus Instruments) with a set temperature of 53 ± 0.1 °C and a cut-off time of 60 s.
(In general: In hot-plate and tail-flick tests a longer latency is read as antinociception.)

Each structure is given as a SMILES string. “Also recorded” adds a separate entry of the source.

Regarding `C[N+](C)(C)[C@H](Cc1c[nH]c2ccccc12)C(=O)[O-]` [Compound 16, L-hypaphorine, reference compound], in test [1] (mice, 2 h after drug), the “analgesia in paw pressure test (mechanical hyperalgesia)” value was “strong evidence of analgesia in algesimeter and von Frey tests”. Further, the “oedema (paw diameter)” value in test [1] (mice, 2 h after drug) is “only a tendency to decrease oedema, not statistically significant”; in test [1] (mice, 2 h after drug, listed as synthetic hypaphorine) it was “No significant effect”; with CFA-induced inflammation (listed as Hypaphorine), “demonstrated anti-oedemic properties”; in the test with CFA-induced inflammation (listed as hypaphorine), “significantly reduced edema in a concentration-dependent manner at doses 0.1–1 mg/kg”. Besides, in test [1] (mice, 2 h after drug), the “analgesia in von Frey test” value is listed as “significant analgesia”. The “analgesia in hot plate test” value with CFA-induced inflammation was “analgesia in hot plate test at all tested doses from 0.1 to 1 mg/kg”. For the same molecule, the “oedema reduction at 48 h end point, normalized to maximal oedema” value with CFA-induced inflammation (dose 0.5, 48 h) was “markedly less effective reduction of oedema than 6ND and 6ID”.
As to `COC(=O)[C@@H](Cc1c[nH]c2cc(I)ccc12)[N+](C)(C)C` [Compound 1, (D)-6-iodohypaphorine methyl ester], the “oedema (paw diameter)” value in test [1] (mice, 2 h after drug, listed as 6ID) is “marked decrease in paw diameter at doses 0.5 and 1 mg/kg”; with CFA-induced inflammation (listed as 6ID) it was “significantly reduced by 6ID at 0.5 mg/kg starting from 12 h of treatment; also recorded: effective against oedema at doses 0.5 and 1 mg/kg”. Further, the “analgesia in von Frey test” value in test [1] (mice, 2 h after drug) is given as “significant analgesia”. For the same molecule, the “carrageenan-induced allodynia and hyperalgesia” value in test [1] (rodents, doses 0.1 and 0.5 mg/kg) is “decreased carrageenan-induced allodynia and hyperalgesia”. For the same molecule, in the test on CFA-induced inflammation (listed as 6ID), the “analgesia in hot plate test” value was “effective in the hot plate test at 0.5 as well as at 1 mg/kg; also recorded: at doses 0.5 and 1 mg/kg showed significant analgesia”.
On to `COC(=O)C(Cc1c[nH]c2cc([N+](=O)[O-])ccc12)[N+](C)(C)C` (stereo not shown) [Compound 5, methyl ester of 6-nitrohypaphorine], for which the “oedema (paw diameter)” value in test [1] (mice, 2 h after drug, listed as 6ND) is listed as “moderate anti-oedemic effect at a dose of 0.5 mg/kg”. Moreover, in test [1] (mice, 2 h after drug), the “analgesia in von Frey test” value is given as “significant analgesia”. For the same molecule, the “analgesia in hot plate test” value in the test with CFA-induced inflammation (listed as 6ND) is on record as “significant analgesia in hot plate test only at 0.1 mg/kg; also recorded: at a dose of 0.1 mg/kg has a pronounced analgesic effect, but higher doses did not show a difference from the control group”.

Source of the values: article PMC10305119, “Analogs of 6-Bromohypaphorine with Increased Agonist Potency for α7 Nicotinic Receptor as Anti-Inflammatory Analgesic Agents” (Marine Drugs, 2023).
